Test results published in ChEMBL document CHEMBL1136732, “Discovery of 5-[5-fluoro-2-oxo-1,2- dihydroindol-(3Z)-ylidenemethyl]-2,4- dimethyl-1H-pyrrole-3-carboxylic acid (2-diethylaminoethyl)amide, a novel tyrosine kinase inhibitor targeting vascular endothelial and platelet-derived growth factor receptor tyrosine kinase” (J Med Chem, 2003).
In brackets after ≈: the same amount, converted by molar mass.

Key:
[1] = target: Vascular endothelial growth factor receptor 2 (Homo sapiens, UniProt P35968)
[2] = In vitro cytotoxicity was determined; conditions: read-out: LD50 (the source's name)
[3] = target: Platelet-derived growth factor receptor beta (Homo sapiens, UniProt P09619)
[4] = target: Epidermal growth factor receptor (Homo sapiens, UniProt P00533)
[5] = target: Fibroblast growth factor receptor 1 (Homo sapiens, UniProt P11362)
[6] = Solubility in 20 mM buffered solution after shaking for 24 hr at 22 degree celsius at pH 2; type: physicochemical
[7] = Solubility in 20 mM buffered solution after shaking for 24 hr at 22 degree celsius at pH 6; type: physicochemical

Sequence of Epidermal growth factor receptor (P00533 whole entry): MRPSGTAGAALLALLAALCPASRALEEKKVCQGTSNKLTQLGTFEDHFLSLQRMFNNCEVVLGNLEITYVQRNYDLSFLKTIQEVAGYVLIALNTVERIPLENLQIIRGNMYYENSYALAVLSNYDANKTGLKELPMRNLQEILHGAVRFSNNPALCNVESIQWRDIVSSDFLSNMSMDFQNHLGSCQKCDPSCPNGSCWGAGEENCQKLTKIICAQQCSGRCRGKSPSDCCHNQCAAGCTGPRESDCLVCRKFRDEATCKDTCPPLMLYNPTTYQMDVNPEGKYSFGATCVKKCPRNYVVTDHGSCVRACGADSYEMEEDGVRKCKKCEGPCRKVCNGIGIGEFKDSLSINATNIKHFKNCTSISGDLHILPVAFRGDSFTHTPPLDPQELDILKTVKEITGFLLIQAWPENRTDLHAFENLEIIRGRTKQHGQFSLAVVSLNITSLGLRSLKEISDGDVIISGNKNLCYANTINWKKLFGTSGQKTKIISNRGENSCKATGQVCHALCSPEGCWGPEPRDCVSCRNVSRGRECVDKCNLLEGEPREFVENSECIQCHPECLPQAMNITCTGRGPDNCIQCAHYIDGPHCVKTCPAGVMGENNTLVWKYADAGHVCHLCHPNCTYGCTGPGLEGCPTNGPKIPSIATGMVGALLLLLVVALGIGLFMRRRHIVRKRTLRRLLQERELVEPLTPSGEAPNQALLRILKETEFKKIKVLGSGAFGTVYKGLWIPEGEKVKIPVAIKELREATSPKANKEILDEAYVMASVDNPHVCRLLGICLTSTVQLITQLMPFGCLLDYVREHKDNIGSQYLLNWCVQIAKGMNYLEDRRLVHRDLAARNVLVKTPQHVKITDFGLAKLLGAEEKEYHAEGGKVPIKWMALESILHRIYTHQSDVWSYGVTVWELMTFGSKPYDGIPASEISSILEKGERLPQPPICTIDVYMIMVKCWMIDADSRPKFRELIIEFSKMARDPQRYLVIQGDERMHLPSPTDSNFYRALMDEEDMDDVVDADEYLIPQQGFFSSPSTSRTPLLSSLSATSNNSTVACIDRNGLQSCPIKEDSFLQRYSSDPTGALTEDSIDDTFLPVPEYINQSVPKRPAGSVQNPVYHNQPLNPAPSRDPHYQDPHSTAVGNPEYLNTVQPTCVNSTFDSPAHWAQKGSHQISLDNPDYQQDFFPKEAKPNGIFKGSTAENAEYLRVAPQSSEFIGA
Sequence of Fibroblast growth factor receptor 1 (P11362 whole entry): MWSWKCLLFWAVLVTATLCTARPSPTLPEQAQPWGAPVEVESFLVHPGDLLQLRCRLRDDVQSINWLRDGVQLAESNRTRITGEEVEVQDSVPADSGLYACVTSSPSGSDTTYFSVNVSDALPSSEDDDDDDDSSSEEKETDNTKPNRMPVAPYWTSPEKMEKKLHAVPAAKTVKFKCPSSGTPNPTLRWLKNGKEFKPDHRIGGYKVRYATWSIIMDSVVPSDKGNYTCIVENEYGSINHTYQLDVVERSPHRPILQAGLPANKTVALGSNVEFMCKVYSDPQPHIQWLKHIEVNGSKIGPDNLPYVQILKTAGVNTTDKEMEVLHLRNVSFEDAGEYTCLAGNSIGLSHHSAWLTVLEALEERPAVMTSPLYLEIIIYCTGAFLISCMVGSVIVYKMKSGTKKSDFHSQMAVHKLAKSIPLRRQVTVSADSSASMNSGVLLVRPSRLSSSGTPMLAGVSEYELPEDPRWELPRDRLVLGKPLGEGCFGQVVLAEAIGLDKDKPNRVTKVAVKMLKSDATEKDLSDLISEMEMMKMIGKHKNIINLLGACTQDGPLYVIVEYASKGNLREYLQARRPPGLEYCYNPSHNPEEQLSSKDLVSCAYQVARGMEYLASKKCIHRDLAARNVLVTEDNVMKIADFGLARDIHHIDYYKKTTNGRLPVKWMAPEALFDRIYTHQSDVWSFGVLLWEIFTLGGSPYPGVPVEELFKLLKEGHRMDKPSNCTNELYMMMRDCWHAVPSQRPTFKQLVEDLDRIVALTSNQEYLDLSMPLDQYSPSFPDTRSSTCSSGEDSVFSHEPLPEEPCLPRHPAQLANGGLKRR
Sequence of Vascular endothelial growth factor receptor 2 (P35968 whole entry): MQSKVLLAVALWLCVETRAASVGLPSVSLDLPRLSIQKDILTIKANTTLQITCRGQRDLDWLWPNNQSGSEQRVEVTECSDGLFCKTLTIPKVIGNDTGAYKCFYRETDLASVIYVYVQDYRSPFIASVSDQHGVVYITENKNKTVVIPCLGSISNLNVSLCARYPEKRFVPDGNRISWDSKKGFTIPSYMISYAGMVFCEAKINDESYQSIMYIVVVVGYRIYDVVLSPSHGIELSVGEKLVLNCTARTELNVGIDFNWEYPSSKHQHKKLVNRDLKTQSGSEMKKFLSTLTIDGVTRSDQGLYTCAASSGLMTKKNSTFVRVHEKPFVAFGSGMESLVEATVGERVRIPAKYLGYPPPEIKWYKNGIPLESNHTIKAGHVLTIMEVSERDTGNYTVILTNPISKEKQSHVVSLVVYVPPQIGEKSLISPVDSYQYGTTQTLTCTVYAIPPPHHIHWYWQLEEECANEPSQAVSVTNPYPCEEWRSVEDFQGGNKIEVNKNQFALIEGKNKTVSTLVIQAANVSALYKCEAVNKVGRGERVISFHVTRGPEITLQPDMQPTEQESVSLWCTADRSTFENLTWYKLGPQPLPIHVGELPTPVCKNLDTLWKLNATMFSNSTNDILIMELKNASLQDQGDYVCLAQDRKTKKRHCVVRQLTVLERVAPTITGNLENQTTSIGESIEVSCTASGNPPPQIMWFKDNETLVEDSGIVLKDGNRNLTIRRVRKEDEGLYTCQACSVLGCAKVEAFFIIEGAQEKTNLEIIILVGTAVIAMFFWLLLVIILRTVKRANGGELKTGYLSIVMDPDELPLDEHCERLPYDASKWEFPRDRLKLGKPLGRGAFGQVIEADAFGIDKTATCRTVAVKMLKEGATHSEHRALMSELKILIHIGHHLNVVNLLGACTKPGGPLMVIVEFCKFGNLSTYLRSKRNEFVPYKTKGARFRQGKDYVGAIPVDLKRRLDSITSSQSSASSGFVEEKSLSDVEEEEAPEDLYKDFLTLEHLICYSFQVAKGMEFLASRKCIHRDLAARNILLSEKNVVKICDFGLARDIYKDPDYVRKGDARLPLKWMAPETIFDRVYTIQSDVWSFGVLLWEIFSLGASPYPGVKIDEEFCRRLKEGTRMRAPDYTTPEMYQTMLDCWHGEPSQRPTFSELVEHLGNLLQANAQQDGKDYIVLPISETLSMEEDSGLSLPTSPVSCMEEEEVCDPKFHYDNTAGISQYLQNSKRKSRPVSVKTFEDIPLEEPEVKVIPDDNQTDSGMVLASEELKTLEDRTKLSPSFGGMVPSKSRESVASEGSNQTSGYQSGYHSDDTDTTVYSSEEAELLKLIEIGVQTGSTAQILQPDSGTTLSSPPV
Sequence of Platelet-derived growth factor receptor beta (P09619 whole entry): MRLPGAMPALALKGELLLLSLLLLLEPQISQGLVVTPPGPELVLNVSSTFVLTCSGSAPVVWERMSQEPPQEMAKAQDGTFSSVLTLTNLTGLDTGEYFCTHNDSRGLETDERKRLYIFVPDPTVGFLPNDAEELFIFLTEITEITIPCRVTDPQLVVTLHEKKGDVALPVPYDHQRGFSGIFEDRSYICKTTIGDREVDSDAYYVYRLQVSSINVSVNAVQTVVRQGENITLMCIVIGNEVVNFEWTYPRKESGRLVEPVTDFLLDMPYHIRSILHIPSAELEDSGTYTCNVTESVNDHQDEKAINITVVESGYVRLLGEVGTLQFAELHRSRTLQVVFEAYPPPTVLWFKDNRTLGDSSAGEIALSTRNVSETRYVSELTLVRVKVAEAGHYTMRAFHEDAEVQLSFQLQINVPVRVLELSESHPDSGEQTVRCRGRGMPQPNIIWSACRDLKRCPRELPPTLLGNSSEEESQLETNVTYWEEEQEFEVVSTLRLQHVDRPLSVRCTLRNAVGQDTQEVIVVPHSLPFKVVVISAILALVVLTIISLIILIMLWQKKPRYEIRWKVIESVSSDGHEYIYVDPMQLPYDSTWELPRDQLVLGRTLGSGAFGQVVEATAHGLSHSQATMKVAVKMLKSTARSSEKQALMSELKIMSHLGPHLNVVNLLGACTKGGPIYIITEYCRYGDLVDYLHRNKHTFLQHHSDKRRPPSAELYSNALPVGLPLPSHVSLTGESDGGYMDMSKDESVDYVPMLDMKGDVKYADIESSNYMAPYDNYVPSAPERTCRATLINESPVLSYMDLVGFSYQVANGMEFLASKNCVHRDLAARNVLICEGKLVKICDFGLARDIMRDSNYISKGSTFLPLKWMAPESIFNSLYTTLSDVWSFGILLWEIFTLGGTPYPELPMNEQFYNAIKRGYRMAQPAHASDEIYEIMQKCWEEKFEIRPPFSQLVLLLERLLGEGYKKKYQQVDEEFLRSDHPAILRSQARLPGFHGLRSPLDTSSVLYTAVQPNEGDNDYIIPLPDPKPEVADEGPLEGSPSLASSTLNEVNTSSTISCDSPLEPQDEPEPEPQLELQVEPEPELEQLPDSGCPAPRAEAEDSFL

| SMILES | IC50 [1] | CC50 [2] | IC50 [3] | IC50 [4] | IC50 [5] | solubility thermodynamic at 24 h [6] | solubility thermodynamic at 24 h [7] |
| --- | --- | --- | --- | --- | --- | --- | --- |
| Cc1[nH]c(/C=C2\C(=O)Nc3ccc(F)cc32)c(C)c1C(=O)NCCN(C)C | 80 nM | 48500 nM | 0.5 nM | > 20000 nM | 1600 nM | 3010 µg/mL (≈ 8130 µM) | 75 µg/mL (≈ 202 µM) |
| CCN(CC)CCNC(=O)c1c(C)[nH]c(/C=C2\C(=O)Nc3ccccc32)c1C | 50 nM | > 50000 nM | 17 nM | > 20000 nM | 880 nM | 3020 µg/mL (≈ 7940 µM) | 511 µg/mL (≈ 1340 µM) |
| CCN(CC)CCNC(=O)c1c(C)[nH]c(/C=C2\C(=O)Nc3ccc(Br)cc32)c1C | 32 nM | 16300 nM | 5 nM | 10000 nM | – | 1300 µg/mL (≈ 2830 µM) | 101 µg/mL (≈ 220 µM) |
| CCN(CC)CCNC(=O)c1c(C)[nH]c(/C=C2\C(=O)Nc3ccc(Cl)cc32)c1C [SU-11652] | 27 nM | 15600 nM | 3 nM | > 20000 nM | 170 nM | 3260 µg/mL (≈ 7850 µM) | 186 µg/mL (≈ 448 µM) |
| Cc1[nH]c(/C=C2\C(=O)Nc3ccc(F)cc32)c(C)c1C(=O)NCCN1CCOCC1 | 90 nM | > 50000 nM | 2 nM | > 20000 nM | 2600 nM | 2940 µg/mL (≈ 7140 µM) | 0.3 µg/mL (≈ 0.727 µM) |
| CCN(CC)CCNC(=O)c1c(C)[nH]c(/C=C2\C(=O)Nc3ccc(F)cc32)c1C [SUNITINIB] | – | 48900 nM | – | – | – | 2580 µg/mL (≈ 6480 µM) | 364 µg/mL (≈ 913 µM) |
| Cc1[nH]c(/C=C2\C(=O)Nc3ccccc32)c(C)c1CCC(=O)O [ORANTINIB] | – | > 50000 nM | – | – | – | < 5 µg/mL | – |
| Cc1[nH]c(/C=C2\C(=O)Nc3ccc(F)cc32)c(C)c1C(=O)NCc1ccncc1 | < 160 nM | > 50000 nM | 1 nM | > 20000 nM | 3100 nM | 486 µg/mL (≈ 1240 µM) | – |
| Cc1[nH]c(/C=C2\C(=O)Nc3ccccc32)c(C)c1CCCN1CCN(C)CC1 | 300 nM | > 50000 nM | 60 nM | > 20000 nM | 4200 nM | – | – |
| Cc1[nH]c(/C=C2\C(=O)Nc3ccc(F)cc32)c(C)c1C(=O)NCCn1cncn1 | 85 nM | > 50000 nM | 10 nM | > 20000 nM | 17100 nM | 2 µg/mL (≈ 5.07 µM) | 6 µg/mL (≈ 15.2 µM) |
| Cc1cc(C)c(/C=C2\C(=O)Nc3ccccc32)[nH]1 [SEMAXANIB] | – | > 50000 nM | – | – | – | < 1 µg/mL | < 1 µg/mL |
| Cc1[nH]c(/C=C2\C(=O)Nc3ccc(F)cc32)c(C)c1C(=O)NCCN1CCCC1 [TOCERANIB] | 60 nM | 49000 nM | 1 nM | > 20000 nM | 3900 nM | 3320 µg/mL (≈ 8370 µM) | 9 µg/mL (≈ 22.7 µM) |
| Cc1[nH]c(/C=C2\C(=O)Nc3ccc(F)cc32)c(C)c1C(=O)NCC1CCN(C)CC1 | 25 nM | 38000 nM | 3 nM | – | 200 nM | > 250 µg/mL | > 250 µg/mL |
